Key:
[1] = target: Acetylcholinesterase (Electrophorus electricus) (UniProt O42275); conditions: at 2 mg/mL
Description: Inhibition of electric eel AChE at 2 mg/ml by Ellman's method

[2] = target: Cholinesterase (Equus caballus) (UniProt P81908); conditions: at 2 mg/mL
Cholinesterase (Equus caballus), sequence (P81908 whole entry): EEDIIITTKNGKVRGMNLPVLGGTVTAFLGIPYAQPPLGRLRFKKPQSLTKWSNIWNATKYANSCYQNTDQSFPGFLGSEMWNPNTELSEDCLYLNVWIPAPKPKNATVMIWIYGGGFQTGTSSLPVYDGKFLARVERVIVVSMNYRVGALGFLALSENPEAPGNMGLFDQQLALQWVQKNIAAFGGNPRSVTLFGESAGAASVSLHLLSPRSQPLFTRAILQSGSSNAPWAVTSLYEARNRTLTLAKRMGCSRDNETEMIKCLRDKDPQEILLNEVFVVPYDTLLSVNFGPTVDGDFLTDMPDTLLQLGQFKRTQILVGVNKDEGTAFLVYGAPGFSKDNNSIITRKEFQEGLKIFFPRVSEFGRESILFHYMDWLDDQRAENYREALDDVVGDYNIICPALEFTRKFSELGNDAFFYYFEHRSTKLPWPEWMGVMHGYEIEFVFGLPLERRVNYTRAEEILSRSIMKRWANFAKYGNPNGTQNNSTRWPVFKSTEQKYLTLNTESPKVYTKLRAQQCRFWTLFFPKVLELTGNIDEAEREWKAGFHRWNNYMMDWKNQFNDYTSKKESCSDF
Description: Inhibition of horse BChE at 2 mg/ml by Ellman's method

Acetylcholinesterase (Electrophorus electricus), sequence (O42275 24-633 limits assumed): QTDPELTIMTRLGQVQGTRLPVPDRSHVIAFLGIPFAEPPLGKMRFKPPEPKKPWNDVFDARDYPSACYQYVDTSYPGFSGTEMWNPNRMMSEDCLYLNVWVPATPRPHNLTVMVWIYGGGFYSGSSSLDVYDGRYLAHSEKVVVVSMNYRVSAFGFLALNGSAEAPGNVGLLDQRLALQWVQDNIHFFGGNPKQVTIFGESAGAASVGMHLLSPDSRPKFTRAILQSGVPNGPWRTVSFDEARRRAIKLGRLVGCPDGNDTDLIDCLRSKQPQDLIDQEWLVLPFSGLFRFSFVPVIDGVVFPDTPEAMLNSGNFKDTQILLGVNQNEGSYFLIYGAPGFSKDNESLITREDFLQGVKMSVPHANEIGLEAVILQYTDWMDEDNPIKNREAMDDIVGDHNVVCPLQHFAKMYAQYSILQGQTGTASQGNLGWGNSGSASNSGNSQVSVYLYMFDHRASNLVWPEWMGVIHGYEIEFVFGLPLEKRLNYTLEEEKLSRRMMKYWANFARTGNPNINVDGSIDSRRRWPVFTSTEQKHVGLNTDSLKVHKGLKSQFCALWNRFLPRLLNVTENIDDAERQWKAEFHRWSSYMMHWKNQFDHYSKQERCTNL

Row | Structure (SMILES) | inhibition [1] [%] | inhibition [2] [%]
1 | C[C@@H]1O[C@@H](OC[C@H]2O[C@@H](Oc3cc(O)c4c(=O)cc(-c5ccc(O)cc5)oc4c3)[C@H](O)[C@@H](O)[C@@H]2O)[C@H](O)[C@H](O)[C@H]1O | 23 | -5.05
2 | COc1ccc(-c2cc(=O)c3ccc(O)cc3o2)cc1 | 30.6 | 6.46
3 | CO[C@H](C(=O)[C@@H](O)[C@@H](C)O)[C@@H]1Cc2cc3cc(O[C@H]4C[C@@H](O[C@H]5C[C@@H](O)[C@H](O)[C@@H](C)O5)[C@@H](O)[C@@H](C)O4)c(C)c(O)c3c(O)c2C(=O)[C@H]1O[C@H]1C[C@@H](O[C@H]2C[C@@H](O[C@H]3C[C@](C)(O)[C@H](O)[C@@H](C)O3)[C@H](O)[C@@H](C)O2)[C@H](O)[C@@H](O)O1 | -3.51 | 6.61
4 | COc1cc2c(cc1OC)[C@H](C)NCC2 | -3.39 | -4.57
5 | CC(C)=CC[C@@H](OC(=O)C=C(C)C)C1=CC(=O)c2c(O)ccc(O)c2C1=O | 22.8 | 6.03
6 | C[C@H]1CC[C@@H]2N(C1)C[C@H]1[C@@H]3C[C@H]4[C@@H](CC(=O)[C@H]5C[C@@H](O)CC[C@@]54C)[C@@H]3CC[C@H]1[C@]2(C)O | 24.9 | 6.5
7 | COc1cc(O)c(C(=O)/C=C/c2ccccc2)c(OC)c1 | 27.1 | 4.56
8 | CN[C@@H]1[C@H](O)[C@H](NC)[C@H]2O[C@@]3(O)C(=O)C[C@@H](C)O[C@H]3O[C@@H]2[C@H]1O | 15 | -9.67
9 | CN(C)c1ccc(O)c2c1C[C@H]1C[C@H]3[C@H](N(C)C)C(O)=C(C(N)=O)C(=O)[C@@]3(O)C(O)=C1C2=O | -0.24 | -8.62
10 | CCCCC[C@H](O)/C=C/[C@H]1C=CC(=O)[C@@H]1CCCCCCC(=O)O | 15.3 | -1.82
11 | COc1cc(/C=C/C(=O)CC(=O)/C=C/c2ccc(O)c(OC)c2)ccc1O | -2.21 | 2.41
12 | CC(C)=CCC/C(C)=C/CC/C(C)=C/CC/C(C)=C/C(=O)O | -5.57 | -2.05
13 | C[C@@H]1C[C@H]2CC[C@H](O2)[C@H](C)C(=O)O[C@@H](C)C[C@@H]2CC[C@@H](O2)[C@@H](C)C(=O)O[C@H](C)C[C@H]2CC[C@@H](O2)[C@H](C)C(=O)O[C@@H](C)C[C@@H]2CC[C@@H](O2)[C@@H](C)C(=O)O1 | 16.4 | -1.31
14 | O=c1c(O)c(-c2ccccc2O)oc2cc(O)cc(O)c12 | 23 | 1.68
15 | C[C@H]1CC[C@]2(NC1)O[C@H]1C[C@H]3[C@@H]4CC[C@H]5C[C@@H](O)CC[C@]5(C)[C@H]4CC[C@]3(C)[C@H]1[C@@H]2C | 11.4 | 6.89
16 | C/C=C(\C)C(=O)O[C@H]1CC(C)=CC(=O)[C@@]2(C)CC[C@@](O)(C(C)C)[C@H]12 | 16.6 | -1.66
17 | CC1=CC(=O)c2ccccc2C1=O | 17.8 | -1.75
18 | C[C@@H]1CC[C@H]2[C@](C)(CO)[C@@H](O)CC[C@]2(C)[C@@]12CC[C@@](CO)(CCO)O2 | -4.53 | 6.75
19 | CC1=C[C@]23C(=O)[C@@H](C=C(CO)[C@@H](O)[C@]2(O)[C@H]1O)[C@H]1[C@@H](C[C@H]3C)C1(C)C | -4.51 | -1.75
20 | C/C1=C/CCC(C)(O)/C=C\C(C(C)C)C(OC(=O)c2ccc(O)cc2)C1 (centres undefined) | 23.7 | -0.77
21 | O=c1cc(-c2ccccc2)oc2cc(O)c(O)cc12 | 23.1 | 1.82

Row | Structure (SMILES) | inhibition [1] [%] | inhibition [2] [%]
22 | CC(C)=CCC[C@]1(C)C=Cc2c(O)c3c(c(CC=C(C)C)c2O1)O[C@]12C(=C[C@@H]4C[C@H]1C(C)(C)O[C@@]2(C/C=C(/C)C(=O)O)C4=O)C3=O | 1.17 | 8.47
23 | CO[C@@H]1[C@@H](OC)[C@H](C)[C@@](O)(CC(=O)O)O[C@H]1[C@H](C)[C@H]1O[C@@]2(CC[C@@](C)([C@H]3CC[C@@](C)([C@@H]4O[C@@H]([C@H]5O[C@](C)(O)[C@H](C)C[C@@H]5C)C[C@@H]4O[C@@H]4C[C@H](OC)[C@@H](OC)[C@H](C)O4)O3)O2)C[C@H](O)[C@H]1C | 22.7 | -3.8
24 | O=c1cc(-c2ccccc2)oc2cc(O)ccc12 | 24.4 | -0.25
25 | O=C(CCc1ccc(O)cc1)c1c(O)cc(O)cc1O[C@@H]1O[C@H](CO)[C@@H](O)[C@H](O)[C@H]1O | -6.94 | 5.38
26 | O=C(/C=C/c1ccc(O)c(O)c1)O[C@H](Cc1ccc(O)c(O)c1)C(=O)O | 14.9 | -3.64
27 | CC[C@]12CCCN3CCc4c(n(c5ccccc45)[C@@](O)(C(=O)OC)C1)[C@@H]32 | 7.29 | 3.22
28 | CC1=C2C[C@H]3[C@@H](CC=C4C[C@@H](O)CC[C@@]43C)[C@@H]2CC[C@]12O[C@@H]1C[C@H](C)CN[C@H]1[C@H]2C | -3.81 | 5.84
29 | OCc1c[nH]c2ccccc12 | -4.82 | 9.11
30 | CCCCCCCCCCCCCC(=O)O[C@@H]1[C@@H](C)[C@@]2(O)[C@@H](C=C(CO)C[C@@]3(O)C(=O)C(C)=C[C@@H]23)[C@H]2C(C)(C)[C@]12OC(C)=O | 12.9 | -0.91
31 | C[C@@H]1O[C@@H](O[C@H]2[C@H](Oc3cc(O)c4c(=O)cc(-c5ccc(O)cc5)oc4c3)O[C@H](CO)[C@@H](O)[C@@H]2O)[C@H](O)[C@H](O)[C@H]1O | 27.2 | -2.37
32 | O=c1c(O)c(-c2ccccc2)oc2cc(O)cc(O)c12 | 6.98 | 2.59
33 | O=c1cc(-c2ccc(O)cc2)oc2cc(OC3O[C@H](CO)[C@@H](O)[C@H](O)[C@H]3O)cc(O)c12 (some centres undefined) | 24.9 | 5
34 | CCCCCCCCCCCCCC[C@@H](O)[C@@H](O)[C@H](CO)NC(C)=O | 0.15 | 3.97
35 | COc1ccc(-c2cc(=O)c3c(O)cc(O)cc3o2)cc1O | -8.89 | -6.13
36 | O=c1c(O)c(-c2cc(O)c(O)c(O)c2)oc2cc(O)ccc12 | 15.7 | -7.22
37 | C[C@@H]1C[C@H]2O[C@@H]2/C=C\C=C\C(=O)Cc2c(Cl)c(O)cc(O)c2C(=O)O1 | 17.4 | -1.22
38 | Cc1c(C(=O)O)c(O)cc2c1C(=O)c1c(O)c([C@@H]3O[C@H](CO)[C@@H](O)[C@H](O)[C@H]3O)c(O)c(O)c1C2=O | 21.5 | -1.98
39 | COc1cc2c(cc1O)C[C@H]1c3c(cc(O)c(OC)c3-2)CCN1C | 9.51 | 1.24
40 | CC(=O)O[C@H]1C(=O)[C@@]2(C)[C@H]([C@H](OC(=O)c3ccccc3)[C@]3(O)C[C@H](OC(=O)[C@H](O)[C@@H](NC(=O)c4ccccc4)c4ccccc4)C(C)=C1C3(C)C)[C@]1(OC(C)=O)CO[C@@H]1C[C@@H]2O | 12.5 | -2.88
41 | c1ccc2c(Cc3c[nH]c4ccccc34)c[nH]c2c1 | 4.61 | 21.7
42 | CN1C[C@H](CO)C[C@@H]2c3cccc4[nH]cc(c34)C[C@H]21 | 6.82 | 15.3

Row | Structure (SMILES) | inhibition [1] [%] | inhibition [2] [%]
43 | CC(=O)N[C@H]1CN2CC[C@H](O)[C@@H]2[C@@H](O)[C@@H]1O | 2.39 | 9.19
44 | C[C@H]1[C@H](C)CC[C@]2(C(=O)O)CC[C@]3(C)C(=CC[C@@H]4[C@@]5(C)CC[C@H](O)C(C)(C)[C@@H]5CC[C@]43C)[C@H]12 | 16.8 | 5.32
45 | COc1cc([C@@H]2c3cc4c(cc3[C@@H](O[C@@H]3O[C@@H]5CO[C@@H](C)O[C@H]5[C@H](O)[C@H]3O)[C@H]3COC(=O)[C@H]23)OCO4)cc(OC)c1O | -9.19 | -5.72
46 | C[C@H]1[C@H](C)CC[C@]2(C(=O)O)CC[C@]3(C)C(=CC[C@@H]4[C@@]5(C)C[C@@H](O)[C@H](O)[C@@](C)(CO)[C@@H]5[C@H](O)C[C@]43C)[C@H]12 | -1.33 | -7.93
47 | O=C(/C=C/C=C/c1ccc2c(c1)OCO2)N1CCCCC1 | -0.1 | 16.8
48 | CC1=CC(=O)C(C(C)C)=CC1=O | 7.9 | -0.33
49 | C[C@H]1CCC[C@@H](O)CCCCCc2cc(O)cc(O)c2C(=O)O1 | -1.34 | -4.26
50 | CC[C@@H]1/C=C/C=C/C[C@H](C)[C@H](O)[C@](C)(O)C(=O)[C@H](C)[C@@H](O)[C@H](C)C(=O)[C@H](C)[C@@H](O)[C@H](C)/C=C/C(=O)O[C@H]2[C@@H](C)[C@@H](CC1)O[C@@]1(CC[C@@H](C)[C@@H](C[C@H](C)O)O1)[C@@H]2C | -5.62 | 1.56
51 | O=c1c(-c2ccc(O)cc2)coc2cc(O)ccc12 | -3.93 | 0.02
52 | O=C1C[C@@H](c2ccc(O)c(O)c2)Oc2c1ccc(O[C@@H]1O[C@H](CO)[C@@H](O)[C@H](O)[C@H]1O)c2O | 8.08 | 3.1
53 | COc1ccc(/C=C/c2cc(OC)cc(=O)o2)cc1 | 7.69 | -1.55
54 | CCCCCCCCCCC[C@@H](C[C@@H]1OC(=O)[C@H]1CCCCCC)OC(=O)[C@H](CC(C)C)NC=O | -6.52 | 7.43
55 | O=C(O)C1=C[C@@H](O)[C@@H](O)[C@H](O)C1 | -8.33 | -4.96
56 | COC(=O)C1=CCCN(C)C1 | 16.9 | 0.29
57 | CCN1C[C@]2(COC)[C@H](O)C[C@H](OC)[C@@]34[C@@H]5C[C@@]6(O)[C@H](OC(=O)c7ccccc7)[C@@H]5[C@@](OC(C)=O)([C@@H]([C@H](OC)[C@H]23)[C@@H]14)[C@@H](O)[C@@H]6OC | 17.6 | 3.01
58 | C=C(C)[C@@H]1CC=C(C(=O)O)CC1 | -3.9 | 3.58
59 | C=C(C)[C@@H]1CC[C@]2(C(=O)O)CC[C@]3(C)[C@H](CC[C@@H]4[C@@]5(C)CC[C@H](O)C(C)(C)[C@@H]5CC[C@]43C)[C@@H]12 | -5.33 | 2.88
60 | COc1cc2c(c(OC)c1OC)-c1ccc(OC)c(=O)cc1[C@@H](NC=O)CC2 | 23.9 | -0.59
61 | CC1=C2C(=CO[C@H](C)[C@H]2C)C(O)=C(C(=O)O)C1=O | 3.11 | 11.3
62 | C=C1CC[C@H]2C(=C)CC[C@H]3C(=C)C(=O)O[C@@H]3[C@@H]12 | 4.06 | 10.7

Source: ChEMBL document CHEMBL2163249, “Exploration of natural compounds as sources of new bifunctional scaffolds targeting cholinesterases and beta amyloid aggregation: the case of chelerythrine” (Bioorg Med Chem, 2012)
